Active and inactive are the calls of the source. No cut-off for these calls is given here.

Assay [1] concerns HT-29. The assay is described as follows: Effective dose required to kill 90% of HT-29 cells with BCNU (40 uM); RPMI medium. It is filed as functional, Homo sapiens.
Assay [2] has as its system HT-29. In words: Effective dose required to kill 90% of HT-29 cells with BCNU (40 uM); folate-free RPMI medium. It is filed as functional, Homo sapiens.
The test system of assay [3] is HT-29. The assay is described as follows: Effective dose required to kill 90% of HT-29 cells with BCNU (40 uM). The assay is classed as functional, Homo sapiens.
For assay [4], the target named is T1, Methylated-DNA--protein-cysteine methyltransferase (Homo sapiens) (UniProt P16455).
T1 sequence (whole entry): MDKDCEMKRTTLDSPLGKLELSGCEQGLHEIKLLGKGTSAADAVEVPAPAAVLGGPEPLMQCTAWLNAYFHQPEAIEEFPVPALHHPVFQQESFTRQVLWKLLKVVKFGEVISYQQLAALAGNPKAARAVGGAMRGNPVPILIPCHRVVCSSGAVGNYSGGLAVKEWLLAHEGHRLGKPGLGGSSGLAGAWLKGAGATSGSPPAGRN
Description: In vitro inactivation of human O6-alkylguanine-DNA alkyltransferase in the presence of calf thymus DNA (ctDNA)

Assay [5] addresses T1, Methylated-DNA--protein-cysteine methyltransferase (Homo sapiens). This is another data set of the same source.
Description: In vitro inactivation of human O6-alkylguanine-DNA alkyltransferase in the absence of calf thymus DNA (ctDNA)
In assay [6] the test system is HT-29. In words: Effective dose required to kill 90% of HT-29 cells with BCNU (40 Dulbecco''s medium. It is filed as functional, Homo sapiens.
Assay [7] deals with HT-29. The assay is described as follows: Effective dose required to kill 90% of HT-29 cells with BCNU (40 uM. It is filed as functional, cell-based. To be noted: Homo sapiens.
Assay [8] concerns HT-29. The assay is described as follows: Effective dose required to kill 90% HT-29 cells with BCNU (40 uM). The assay is classed as functional, Homo sapiens.

Consider `Nc1nc(OCc2ccccc2)c2nc(CNc3ccc(C(=O)N[C@@H](CCC(=O)O)C(=O)O)cc3)cnc2n1`, for which the results for the ED90 with HT-29 [1] and in the assay on HT-29 [2] were 24000 nM and 15000 nM, respectively.

Compound `Nc1nc(OCc2ccccc2)c2nc(C=O)cnc2n1` displayed an ED90 in the assay on HT-29 [3] of 700 nM.

`Nc1nc(OCc2ccccc2)c2nc[nH]c2n1` [6-O-BENZYLGUANINE]: the ED50 in assay [4] stood at 120 nM; in assay [5], 320 nM. Moreover, the ED90 with HT-29 [1] was 700 nM; with HT-29 [6], 400 nM.

As to `Nc1nc(OCc2ccccc2)c2nc(C(=O)O)cnc2n1`, the ED90 result in the assay on HT-29 [7] is “inactive”.

The compound `Nc1nc(OCc2ccccc2)c2nc(CO)cnc2n1` registered an ED90 in the assay on HT-29 [8] of 700 nM.

In turn, `Nc1nc(OCc2ccccc2)c2nccnc2n1` displayed an ED90 in the assay on HT-29 [3] of 200 nM.

`Cc1nc2nc(N)nc(OCc3ccccc3)c2nc1C` returned an ED90 with HT-29 [3] of 600 nM.
